This note sets out measurements from US4511504A, “Carboxyalkyl peptide derivatives” (G.D. Searle & Co., priority 1983, dated 1985).

The test deals with T1, Human Rheumatoid Synovial Collagenase (Homo sapiens, UniProt P03956).
T1 construct: Human Rheumatoid Synovial Collagenase; from tissue; host or cells: human rheumatoid synovium (from the name only; the preparation is not described)
T1 sequence (P03956 100-469): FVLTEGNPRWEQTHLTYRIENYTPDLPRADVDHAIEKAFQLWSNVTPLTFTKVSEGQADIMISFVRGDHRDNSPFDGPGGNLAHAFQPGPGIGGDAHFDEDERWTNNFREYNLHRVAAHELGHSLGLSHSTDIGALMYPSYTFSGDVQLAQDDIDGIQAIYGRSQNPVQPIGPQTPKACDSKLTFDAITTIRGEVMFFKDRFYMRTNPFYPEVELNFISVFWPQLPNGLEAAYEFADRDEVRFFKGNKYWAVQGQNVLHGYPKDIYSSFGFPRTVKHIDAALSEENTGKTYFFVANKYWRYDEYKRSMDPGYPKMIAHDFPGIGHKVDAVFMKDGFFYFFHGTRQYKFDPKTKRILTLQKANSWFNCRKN
Put plainly: Collagenase inhibition, procedure of Cawston and Barrett (acetyl 14C collagen hydrolysis). Conditions: inhibitor concentration effecting 50% inhibition; 37° C., 16 hours, native acetyl 14C collagen, Tris HCl-CaCl2 pH 7.6. It is filed as biochemical. The protocol:
This was determined following the procedure of Cawston and Barrett, Anal. Biochem., 99, 340-345 (1979) whereby the 1 mM of the inhibitor being tested or dilutions thereof are incubated at 37° C. for 16 hours with native collagen and collagenase (buffered with Tris HCl--CaCl2; pH 7.6). The collagen is acetyl ^14 C collagen. The samples are centrifuged to sediment undigested collagen and an aliquot of the radiactive supernatant removed for assay on a scintillation counter as a measure of hydrolysis. The collagenase activity in the presence of 1 mM inhibitor, or a dilution thereof is compared to activity in a control devoid of inhibitor and the results reported as that inhibitor concentration effecting 50% inhibition of the collagenase.

As for `CCCCNC(=O)[C@H](C)NC(=O)[C@H](CC(C)(C)C)N[C@H](C)C(=O)O` [Example 23, N-[2-(S)-N-(1-(R)-Carboxyethyl)amino-4,4-dimethylpentanoyl]-L-alanine N-Butylamide], half-maximal inhibition (IC50) required 25 µM. In other words, the double-digit micromolar range.
